Calls of active or inactive are those of the source. The rule behind the calls is not given here.
Key:
[1] = molecular target: T1, Gastrin/cholecystokinin type B receptor (Homo sapiens) (UniProt P32239); assay: Displacement of Eu-DTAP-CCK8-NH2 from CCK2 receptor expressed in human HEK293 cells at 10^-5 to 10^-12 M after 1 hr by time resolved fluorescence method; format: cell-based
T1 sequence (whole entry): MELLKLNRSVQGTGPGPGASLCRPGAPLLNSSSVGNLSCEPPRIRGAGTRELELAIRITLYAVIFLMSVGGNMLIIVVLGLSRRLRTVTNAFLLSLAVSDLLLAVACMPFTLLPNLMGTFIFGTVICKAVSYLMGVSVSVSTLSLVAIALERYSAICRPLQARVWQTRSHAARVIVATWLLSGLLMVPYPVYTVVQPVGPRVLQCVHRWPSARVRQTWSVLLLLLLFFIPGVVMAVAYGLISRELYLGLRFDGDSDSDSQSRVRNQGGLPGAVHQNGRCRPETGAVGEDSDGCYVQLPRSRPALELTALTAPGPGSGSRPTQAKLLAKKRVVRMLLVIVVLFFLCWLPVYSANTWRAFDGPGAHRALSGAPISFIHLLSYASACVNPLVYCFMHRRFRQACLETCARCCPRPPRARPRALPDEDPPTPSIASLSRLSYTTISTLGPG

[2] = molecular target: Melanocortin receptor 4 (Homo sapiens) (UniProt P32245); assay: Displacement of Eu-DTAP-NDP-alpha-MSH-NH2 from MC4 receptor expressed in human HEK293 cells at 10^-5 to 10^-12 M after 1 hr by time resolved fluorescence method; format: cell-based
Melanocortin receptor 4 (Homo sapiens), sequence (P32245 whole entry): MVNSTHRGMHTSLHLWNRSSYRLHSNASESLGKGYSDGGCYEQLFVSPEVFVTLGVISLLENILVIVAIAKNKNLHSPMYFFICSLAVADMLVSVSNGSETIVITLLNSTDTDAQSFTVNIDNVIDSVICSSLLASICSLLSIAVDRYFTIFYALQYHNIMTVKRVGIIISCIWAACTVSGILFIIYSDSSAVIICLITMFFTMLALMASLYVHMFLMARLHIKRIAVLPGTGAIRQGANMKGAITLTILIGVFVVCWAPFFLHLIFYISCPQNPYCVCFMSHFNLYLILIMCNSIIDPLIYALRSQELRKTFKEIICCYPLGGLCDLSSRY

- Activity [1]: inactive
- Activity [2]: inactive
SMILES: NC(=O)[C@H](CO)NC(=O)CCCCCn1cc(CCCCOC[C@H]2O[C@@](COCCCCc3cn(CCCCCC(=O)N[C@@H](CO)C(N)=O)nn3)(O[C@H]3O[C@H](COCCCCc4cn(CCCCCC(=O)N[C@@H](CO)C(N)=O)nn4)[C@@H](OCCCCc4cn(CCCCCC(=O)N[C@@H](CO)C(N)=O)nn4)[C@H](OCCCCc4cn(CCCCCC(=O)N[C@@H](CO)C(N)=O)nn4)[C@H]3OCCCCc3cn(CCCCCC(=O)N[C@@H](CO)C(N)=O)nn3)[C@@H](OCCCCc3cn(CCCCCC(=O)N[C@@H](CO)C(N)=O)nn3)[C@@H]2OCCCCc2cn(CCCCCC(=O)N[C@@H](CO)C(N)=O)nn2)nn1
